# Results: patent US3969521A, “Pharmaceutical compositions containing tetrahydroalstonine and method for treating circulation disorders” (Science Union et Cie, Societe Francaise de Recherche Medical, priority 1974, dated 1976)
# “Also recorded” adds a separate entry of the source.
# Columns and labels:
# [1] = test system: analgetic effect of Morphine; experiment: Analgetic effect of Morphine; details: in vivo
# [2] = test system: central nervous system; experiment: Effects on the central nervous system; format: in vivo
# [3] = test system: blood-sugar levels; details: rat, thesis (Kocialski); cited from earlier work
# [4] = test system: recovery of learned memories; experiment: Recovery of learned memories after electroshock (aquatic maze crossing); format: in vivo, rat
# Description: Effects of tetrahydroalstonine on the recovery of learned memories on rats.
# Tetrahydroalstonine has been tested on lots of rats in order to determine how fast it allows the recovery of learned memories after supramaximal electroshock in comparision with Vincamine and Papaverine. These last compounds are known to be active on the circulation namely as vasodilating agents.
# In this test, as described by C. Giurgea (J. Pharmacol. (Paris) 3 17 (1972)), the rats are submitted to a submaximal electroshock which causes a spatio-temporal desorientation. This syndrom is evidenced by the difficulties the tested animals encountered for crossing over a maze filled with cold water without any error, after they have been submitted to the electroshock. The rats have been previously trained to swimm through this maze and the training has been renewed four times for 2 days.
# The electric shock was delivered by means of a Neurovar apparatus (ALVAR Electronics) the third day. 20 Minutes after the electro shock, each lot of rats is tested and the time for crossing over the maze is determined. Immediately after, the rats received the compound to be tested by intra oesophageal tubing. Each lot is then experienced four times, 1, 2, 3, and 4 hours after the electroshock.
# The score of performances of each individual is recorded and every error during the crossing over noticed.
# The compounds to be tested (papaverine, vincamine and tetrahydroalstonine) are given to the animals, suspended in an aqueous solution of carboxymethylcellulose and sorbitan monooleate.
# Papaverine and vincamine were administered at dosis ranging from 1 to 20 mg/kg. Tetrahydroalstonine was administered at a dosis of 0.6 mg/kg, 6 mg/kg and 60 mg/kg.
# A lot of rats received only the aqueous solvent under the same volume (0.5 ml/100 g animal) as controls.
# Therein are reported for each lot of rats the number of errors and the average time for crossing over the maze during the 5 tests performed after the animals have been subjected to the electroshock.
# The treatment has been given 20 mn after the electroshock, immediately
# after the first crossing over
# [5] = test system: arterial blood pressure; details: dog, in vivo, 100 mg/kg
# Description: This test has been carried out on lots of five dogs weighing from 16 to 20 kg. The dogs have been previously anaesthetized with chloralose by intravenous way and the intravenous injection of 50 mg heparine for each dog is renewed every 150 minutes.
# The average arterial blood pressure is determined by dissection of a brachial artery and insertion of a catheter connected with a Statham P23 Db transducer.
# The various parameters have been recorded by means on a polygraph and the hemodynamic survey has been afforded with two tracks-cathodic tubes.
# [6] = 0,6 mg/kg P.O., 20 minutes after electroshock (before treatment)
# [7] = 6 mg/kg P.O., 20 minutes after electroshock (before treatment)
# [8] = 60 mg/kg P.O., 20 minutes after electroshock (before treatment)
smiles,measurement,setting,value
COC(=O)C1=CO[C@@H](C)[C@@H]2CN3CCc4c([nH]c5ccccc45)[C@@H]3C[C@H]12 [Tetrahydroalstonine],effect on the analgetic effect of Morphine,[1],increases the analgetic effect of Morphine
same,effect on the central nervous system,[2]; dosage not stated,diphasic
same,effect on the central nervous system,[2]; higher dosages (20 to 40 mg/kg per os),sedative effect
same,effect on the central nervous system,[2]; higher dosages (dose not stated),sedative effects
same,effect on the central nervous system,[2]; low dosages,stimulating properties; also recorded: slight stimulating action
same,effect on blood-sugar levels,[3],negative
same,a = variation of average number of errors as regard as the controls,"[4]; 0,6 mg/kg P.O., 20 minutes (before treatment)",-
same,E = average number of errors,[4]; [6],"12,3"
same,T = average time for crossing over,[4]; [6],"124,2 seconds"
same,E = average number of errors,"[4]; 0,6 mg/kg P.O., 60 minutes","8,4"
same,T = average time for crossing over,"[4]; 0,6 mg/kg P.O., 60 minutes","85,2 seconds"
same,a = variation of average number of errors as regard as the controls,"[4]; 0,6 mg/kg P.O., 60 minutes",-
same,E = average number of errors,"[4]; 0,6 mg/kg P.O., 120 minutes","6,2"
same,T = average time for crossing over,"[4]; 0,6 mg/kg P.O., 120 minutes","66,4 seconds"
same,a = variation of average number of errors as regard as the controls,"[4]; 0,6 mg/kg P.O., 120 minutes",-
same,E = average number of errors,"[4]; 0,6 mg/kg P.O., 180 minutes","3,1"
same,T = average time for crossing over,"[4]; 0,6 mg/kg P.O., 180 minutes","37,9 seconds"
same,a = variation of average number of errors as regard as the controls,"[4]; 0,6 mg/kg P.O., 180 minutes",-
same,"b = statistical value (student's test), number of errors","[4]; 0,6 mg/kg P.O., 180 minutes","0,01"
same,E = average number of errors,"[4]; 0,6 mg/kg P.O., 240 minutes","2,0"
same,T = average time for crossing over,"[4]; 0,6 mg/kg P.O., 240 minutes","29,4 seconds"
same,a = variation of average number of errors as regard as the controls,"[4]; 0,6 mg/kg P.O., 240 minutes",-
same,"b = statistical value (student's test), number of errors","[4]; 0,6 mg/kg P.O., 240 minutes","0,0005"
same,potency compared with papaverine or vincamine,[4]; 0.6 mg/kg,competes with that of 20 mg/kg of papaverine or vincamine
same,time after which the statistically significant decrease of the number of mistakes appeared,[4]; 0.6 mg/kg,180 mn
same,start of the improving effect,[4]; 6 mg/kg,60 mn
same,time after which the statistically significant decrease of the number of mistakes appeared,[4]; 6 mg/kg,120 mn
same,a = variation of average number of errors as regard as the controls,"[4]; 6 mg/kg P.O., 20 minutes (before treatment)",-
same,E = average number of errors,[4]; [7],"12,3"
same,T = average time for crossing over,[4]; [7],"133,5 seconds"
same,E = average number of errors,"[4]; 6 mg/kg P.O., 60 minutes","6,9"
same,T = average time for crossing over,"[4]; 6 mg/kg P.O., 60 minutes","75,1 seconds"
same,a = variation of average number of errors as regard as the controls,"[4]; 6 mg/kg P.O., 60 minutes",-
same,E = average number of errors,"[4]; 6 mg/kg P.O., 120 minutes","4,4"
same,T = average time for crossing over,"[4]; 6 mg/kg P.O., 120 minutes","52,5 seconds"
same,a = variation of average number of errors as regard as the controls,"[4]; 6 mg/kg P.O., 120 minutes",-
same,"b = statistical value (student's test), number of errors","[4]; 6 mg/kg P.O., 120 minutes","0,05"
same,E = average number of errors,"[4]; 6 mg/kg P.O., 180 minutes","3,6"
same,T = average time for crossing over,"[4]; 6 mg/kg P.O., 180 minutes","54,6 seconds"
same,a = variation of average number of errors as regard as the controls,"[4]; 6 mg/kg P.O., 180 minutes",-
same,"b = statistical value (student's test), number of errors","[4]; 6 mg/kg P.O., 180 minutes","0,05"
same,E = average number of errors,"[4]; 6 mg/kg P.O., 240 minutes","2,5"
same,T = average time for crossing over,"[4]; 6 mg/kg P.O., 240 minutes","23,8 seconds"
same,a = variation of average number of errors as regard as the controls,"[4]; 6 mg/kg P.O., 240 minutes",-
same,"b = statistical value (student's test), number of errors","[4]; 6 mg/kg P.O., 240 minutes","0,005"
same,time after which the statistically significant decrease of the number of mistakes appeared,[4]; 60 mg/kg,60 mn
same,a = variation of average number of errors as regard as the controls,"[4]; 60 mg/kg P.O., 20 minutes (before treatment)",-
same,E = average number of errors,[4]; [8],"10,6"
same,T = average time for crossing over,[4]; [8],"135,0 seconds"
same,E = average number of errors,"[4]; 60 mg/kg P.O., 60 minutes","5,8"
same,T = average time for crossing over,"[4]; 60 mg/kg P.O., 60 minutes","62,2 seconds"
same,a = variation of average number of errors as regard as the controls,"[4]; 60 mg/kg P.O., 60 minutes",-
same,"b = statistical value (student's test), number of errors","[4]; 60 mg/kg P.O., 60 minutes","0,025"
same,E = average number of errors,"[4]; 60 mg/kg P.O., 120 minutes","2,7"
same,T = average time for crossing over,"[4]; 60 mg/kg P.O., 120 minutes","28,8 seconds"
same,a = variation of average number of errors as regard as the controls,"[4]; 60 mg/kg P.O., 120 minutes",-
same,"b = statistical value (student's test), number of errors","[4]; 60 mg/kg P.O., 120 minutes","0,005"
same,E = average number of errors,"[4]; 60 mg/kg P.O., 180 minutes","1,6"
same,T = average time for crossing over,"[4]; 60 mg/kg P.O., 180 minutes","18,8 seconds"
same,a = variation of average number of errors as regard as the controls,"[4]; 60 mg/kg P.O., 180 minutes",-
same,"b = statistical value (student's test), number of errors","[4]; 60 mg/kg P.O., 180 minutes","0,0005"
same,E = average number of errors,"[4]; 60 mg/kg P.O., 240 minutes","1,8"
same,T = average time for crossing over,"[4]; 60 mg/kg P.O., 240 minutes","20,1 seconds"
same,a = variation of average number of errors as regard as the controls,"[4]; 60 mg/kg P.O., 240 minutes",-
same,"b = statistical value (student's test), number of errors","[4]; 60 mg/kg P.O., 240 minutes","0,0005"
same,dose dependence of the effect on number of mistakes,"[4]; 0.6, 6 and 60 mg/kg",closely related to the used dosis
same,time after the convulsive shock at which recovery of the memory is complete,[4]; highest tested dosage (60 mg/kg),120 mn
same,activity relative to papaverine and vincamine,"[4]; rat, in vivo",more active
same,effect on the recovery of learned memory,"[4]; rat, in vivo",improving effect
same,noticeable decrease of the blood arterial pressure (incidence),[5],one case out of five
